Test systems include A549 NSCLC; ACHN renal; COLO 205 colon; HOP-62 NSCLC; MCF7 breast; SK-MEL-2 melanoma; SR leukemia.
Assay in all cases: growth of human tumour cells (NCI), 48 h

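Following 48 hours of exposure in 96-well plates, responses at five concentrations were used to interpolate endpoints linearly. Here, GI50 denotes the concentration required for 50% inhibition of growth. TGI: total growth inhibition.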 A value given as a limit tells only on which side of the number the result lay.

With `CC12CCC(=O)C(O1)C1C(=O)c3ccc4c(ccc5ccccc54)c3C(=O)C12` (stereo unspecified), the GI50 in the assay with A549 NSCLC is 9.34 µM; with ACHN renal, 3.13 µM; with COLO 205 colon it was 2.13 µM; with HOP-62 NSCLC it was 26.5 µM; in the assay with MCF7 breast, 3.89 µM; with SK-MEL-2 melanoma, 10 µM. For the same compound, the TGI with A549 NSCLC is 33.2 µM; in the assay with ACHN renal, 8.21 µM; in the assay with COLO 205 colon, > 59.1 µM; in the assay on HOP-62 NSCLC, 50.3 µM; in the assay with MCF7 breast it was 13.4 µM; in the assay with SK-MEL-2 melanoma, > 28.6 µM.
`Fc1ccc2c(c1)C1=C(CCC2)C(c2ccc(Cl)cc2)NC(=S)N1` (stereo unspecified): the GI50 in the assay on A549 NSCLC is 20.7 µM; in the assay with ACHN renal, 29.5 µM; with COLO 205 colon, 62.1 µM; in the assay on MCF7 breast it was 26.6 µM. Also, the TGI in the assay on A549 NSCLC, in the assay with ACHN renal, in the assay with COLO 205 colon and with MCF7 breast was > 100 µM each time.
As for `CC(=O)c1c[nH]c2ccc(-c3ccnc(Nc4ccc(NC(=O)C5CCCC5)c(CN5CCOCC5)c4)n3)cc12`, the GI50 in the assay on A549 NSCLC was 0.0312 µM; in the assay with ACHN renal, 0.0305 µM; in the assay with COLO 205 colon it was 0.0194 µM; with HOP-62 NSCLC, 0.0403 µM; in the assay on MCF7 breast it was 0.0304 µM; in the assay on SK-MEL-2 melanoma it was 0.0222 µM. The TGI is 1.54 µM in the assay with A549 NSCLC; 0.0679 µM with COLO 205 colon; 3.52 µM with HOP-62 NSCLC; 0.174 µM in the assay with MCF7 breast; 0.0585 µM in the assay with SK-MEL-2 melanoma.
Turning to `C1CSC[C@H]2COC[C@@H](CSCCS1)S2`, the TGI in the assay on A549 NSCLC, in the assay on COLO 205 colon, in the assay on HOP-62 NSCLC, in the assay on MCF7 breast and in the assay with SR leukemia was > 100 µM throughout.
In the case of `COc1ccc2nc(C)cc(Sc3nc4ccccc4s3)c2c1`, the GI50 with A549 NSCLC was 2.21 µM; in the assay with ACHN renal it was 1.21 µM; with COLO 205 colon it was 0.816 µM; in the assay on HOP-62 NSCLC, 1.26 µM; in the assay with MCF7 breast, 1.45 µM; in the assay with SR leukemia, 0.432 µM. Also, the TGI turned out to be 14.2 µM in the assay on A549 NSCLC; 5.77 µM in the assay with ACHN renal; 2.58 µM in the assay with COLO 205 colon; 6.06 µM with HOP-62 NSCLC; 11.1 µM in the assay with MCF7 breast; 2.46 µM in the assay with SR leukemia.
Turning to `COc1ccc2c(c1O)[C@@]13CCCC=C1[C@@H](C2)[N+](C)(C)CC3`, the TGI in the assay with A549 NSCLC, with ACHN renal, with COLO 205 colon, with HOP-62 NSCLC, with MCF7 breast and in the assay on SK-MEL-2 melanoma was > 100 µM each time.
As for `O=C1CC(c2cccc(Cl)c2)Oc2ccccc21` (stereo unspecified), the TGI in the assay on ACHN renal worked out at 31.7 µM; in the assay with COLO 205 colon, 69.3 µM; with HOP-62 NSCLC, 32.6 µM; in the assay on MCF7 breast, 39.4 µM; with SK-MEL-2 melanoma, 35.6 µM.
Take `CC12OC(C(=O)C13CC3)C1C(=O)c3c(O)ccc(O)c3C(=O)C12` (stereo unspecified): the GI50 with A549 NSCLC was 17.5 µM; in the assay on ACHN renal it was 3.54 µM; in the assay with COLO 205 colon, 15.4 µM; with HOP-62 NSCLC it was 21.3 µM; with MCF7 breast, 11.2 µM; in the assay on SK-MEL-2 melanoma, 33.9 µM. In addition, the TGI in the assay on A549 NSCLC was 39.2 µM; in the assay on ACHN renal, 15.2 µM; in the assay on COLO 205 colon, 35.8 µM; with HOP-62 NSCLC it was 60.5 µM; with MCF7 breast, 26.3 µM; in the assay on SK-MEL-2 melanoma it was > 100 µM.
Take `CCOC(=O)c1c(-c2ccccc2)[n+](=O)c2cc(F)c(F)cc2n1[O-]`: the GI50 was 2.14 µM in the assay with A549 NSCLC; 1.38 µM in the assay on ACHN renal; 1.42 µM in the assay with HOP-62 NSCLC; 2.76 µM in the assay on MCF7 breast; 3.47 µM with SK-MEL-2 melanoma; 0.187 µM in the assay on SR leukemia. Moreover, the TGI was 4.46 µM in the assay on A549 NSCLC; 2.8 µM with ACHN renal; 3.24 µM with HOP-62 NSCLC; 10.5 µM with MCF7 breast; > 100 µM in the assay on SK-MEL-2 melanoma; > 100 µM in the assay with SR leukemia.
In the case of `CCCCCCCCCCCNC=O`, the TGI in the assay with A549 NSCLC is > 100 µM; with ACHN renal, > 100 µM; with COLO 205 colon, > 100 µM; with HOP-62 NSCLC, > 100 µM; in the assay on MCF7 breast, > 100 µM; with SK-MEL-2 melanoma, 66.1 µM.
Consider `CC1CCCC(C#N)(NOC2=NCCN2)C1` (stereo unspecified), for which the GI50 in the assay with A549 NSCLC is 63.4 µM; in the assay with ACHN renal, 18.9 µM; in the assay with COLO 205 colon, 61.3 µM; in the assay on MCF7 breast it was 42.2 µM; with SK-MEL-2 melanoma, 57.3 µM; with SR leukemia, 7.87 µM. Besides, the TGI in the assay with A549 NSCLC was > 100 µM; with ACHN renal it was 46 µM; in the assay on COLO 205 colon, > 100 µM; in the assay with MCF7 breast it was > 100 µM; in the assay on SK-MEL-2 melanoma it was > 100 µM; in the assay with SR leukemia, > 100 µM.
For the compound `O=C1CS/C(=N/S(=O)(=O)c2ccc(N3N=C4c5ccccc5CC4C3c3cccs3)cc2)N1C(=O)c1ccccc1` (stereo unspecified), the GI50 was 70.8 µM in the assay on A549 NSCLC; 39 µM in the assay on ACHN renal; 51.1 µM in the assay with COLO 205 colon; 32.9 µM in the assay with HOP-62 NSCLC; > 100 µM in the assay with MCF7 breast; > 100 µM in the assay with SK-MEL-2 melanoma. The TGI was > 100 µM with A549 NSCLC; > 100 µM in the assay on ACHN renal; > 100 µM in the assay with COLO 205 colon; 63 µM with HOP-62 NSCLC; > 100 µM in the assay on MCF7 breast; > 100 µM with SK-MEL-2 melanoma.
Take `C=C(C)[C@@H]1CCc2c(O)c(O)c(=O)cc(C)c2C1`: the TGI in the assay with A549 NSCLC was > 100 µM; in the assay on ACHN renal, 14.1 µM; in the assay with COLO 205 colon, 15 µM; with MCF7 breast, 20.7 µM; in the assay on SK-MEL-2 melanoma, > 100 µM; with SR leukemia it was > 20.3 µM.
For `COc1ccc(C2NN=C3c4ccccc4CCC32)cc1` (stereo unspecified), the GI50 was 19.7 µM in the assay on A549 NSCLC; 24.5 µM in the assay with ACHN renal; 7.8 µM in the assay with COLO 205 colon; 95.3 µM in the assay on HOP-62 NSCLC; 2.56 µM with MCF7 breast; 28.5 µM in the assay on SK-MEL-2 melanoma. Moreover, the TGI in the assay on A549 NSCLC is 76.6 µM; in the assay on ACHN renal, > 100 µM; in the assay with COLO 205 colon, 22.5 µM; in the assay on HOP-62 NSCLC, > 100 µM; in the assay with MCF7 breast, 11.5 µM; in the assay with SK-MEL-2 melanoma, > 100 µM.

The values above are taken from PubChem BioAssay (NCI).
